Assay results as given in patent US7393918B2, “Protein binding miniature proteins and uses thereof” (priority 2003, dated 2008).

Tests used:
[1] = test system: L. monocytogenes; test: L. monocytogenes actin-based motility in Xenopus laevis egg cytoplasmic extracts; set-up: species or system Listeria monocytogenes
Method: Errors bars show the intraquartile range.
L. monocytogenes motility in mammalian cells and extracts is due to interactions between the 639-residue bacterial protein ActA and host proteins that recruit and activate actin polymerization. Addition of 10 μM ActA11 decreased the median speed of L. monocytogenes by 89%, consistent with previous work. […] Further experimentation will be required to fully understand the molecular events that result in altered motility.

[2] = molecular target: Mena1-112 EVH1 domain (Mus musculus, UniProt Q03173); test: tryptophan fluorescence perturbation analysis of EVH1 domain binding; details: all EVH1 domains tested (Mena1-112, VASP1-115, Evl1-115)
Mena1-112 EVH1 domain, sequence (Q03173 1-112): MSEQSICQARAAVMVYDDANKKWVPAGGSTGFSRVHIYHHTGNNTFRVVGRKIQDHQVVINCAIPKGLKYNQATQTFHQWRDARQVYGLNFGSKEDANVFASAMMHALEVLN

[3] = molecular target: Mena1-112 (Mus musculus, UniProt Q03173); test: competition with pGolemi^Flu for binding to Mena1-112; details: read-out: IC50, competition with pGolemi^Flu for binding to Mena1-112
Mena1-112, sequence (Q03173 1-112): as above

## ActA11: 11 residue peptide comprising PPII repeat 2 of L. monocytogenes ActA; best previously known Mena ligand (DFPPPPTDEEL; ActA11, peptide comprising PPII repeat of ActA protein)
[1]; 10 μM
  decrease of median speed of L. monocytogenes: 89%
[1]; any concentration tested
  discontinuous tail formation of L. monocytogenes: Discontinuous tails were not observed
[2]
  Krel among EVH1 domains: < 3
[3]
  IC50: 4 ± 0.2 µM
